Legend:
[1] = humans; cited from earlier work
[2] = Release profile (cumulative fraction released) of a memantine and dihydroergotamine combination, USP II Paddle system, water; format: physicochemical
From the text: The cumulative fraction is the amount of drug substance released from the formulation matrix to the serum or gut environment (e.g., U.S. Pat. No. 4,839,177) or as measured with a USP II Paddle system using water as the dissolution medium.

[3] = head of release table, Example 3; cited from earlier work

Structure (SMILES): CC(N)C12CC3CC(CC(C3)C1)C2 (stereo not drawn) [Rimantadine, 1-(1-aminoethyl)adamantane]
- Dose Dependent Tox [1]: Insomnia

Structure (SMILES): CN1C[C@H](C(=O)N[C@]2(C)O[C@@]3(O)[C@@H]4CCCN4C(=O)[C@H](Cc4ccccc4)N3C2=O)C[C@@H]2c3cccc4[nH]cc(c34)C[C@H]21 [DIHYDROERGOTAMINE, dihydroergotamine]
- cum. fraction ([2]; Time 1): 0.15
- cum. fraction ([2]; Time 2): 0.30
- cum. fraction ([2]; Time 4): 0.45
- cum. fraction ([2]; Time 8): 0.60
- cum. fraction ([2]; Time 12): 0.75
- cum. fraction ([2]; Time 16): 0.90
- cum. fraction ([2]; Time 20): 0.98
- cum. fraction ([2]; Time 24): 0.99
- T½ [3]: T½ = 15 hrs

Structure (SMILES): CC12CC3CC(C)(C1)CC(N)(C3)C2 [Memantine, 1-amino-3,5-dimethyladamantane]
- cum. fraction ([2]; Time 1): 0.15
- cum. fraction ([2]; Time 2): 0.30
- cum. fraction ([2]; Time 4): 0.45
- cum. fraction ([2]; Time 8): 0.60
- cum. fraction ([2]; Time 12): 0.75
- cum. fraction ([2]; Time 16): 0.90
- cum. fraction ([2]; Time 20): 0.98
- cum. fraction ([2]; Time 24): 0.99

— patent US20100029665A1, “Methods and Compositions for Treating Migraine Pain” (priority 2004, published 2010)
